In patent publication US20130209515A1, “ANTI-INFECTIVE AND IMMUNOMODULATORY COMPOUNDS” (priority 2005, published 2013):

System: mouse genes
Assay: Whole genome expression in blood of mice after 2AA (Affymetrix GeneChip)
Format: in vivo
Conditions: for Fold Change X14607 Lipocalin 2 / Fold Change AF220015 Rpt-1; regulatory protein, T lymphocyte 1 / Fold Change AF237910 Membrane-spanning 4-domains, subfamily A / Fold Change AI323359 Csfmr, colony stimulating factor IR, regulator of myeloid cell proliferation / Fold Change AI462015 Nuclear factor of kappa light chain gene enhancer in B-cells inhibitor, alpha / Fold Change AI648846 Solute carrier family 6 / Fold Change AV026617 FBJ osteosarcoma oncogene / Fold Change AV229143 Interferon activated gene (202A) / Fold Change AV318494 Myeloid cell leukemia sequence 1 / Fold Change BB193024 Interferon-induced transmembrane protein-2 / Fold Change BB241535 Suppressor of cytokine signaling 3 / Fold Change BB769628 Colony stimulating factor 2 receptor, beta 1 / Fold Change BB784999 Triggering receptor expressed on myeloid cells 1 / Fold Change BB831725 Suppressor of cytokine signaling 3 / Fold Change BC003839 Myeloid cell leukemia sequence 1 (Mcl1) / Fold Change BC010291 Interferon-inducible protein (Cd225) / Fold Change BC011092 Chemokine (C-C) receptor 1 / Fold Change BC011437 IL-1β / Fold Change BC012653 Chemokine (C-X3-C) receptor 1 / Fold Change BC021916 EMAPI, cytokine activity / Fold Change BC022943 Lymphocyte cytosolic protein 1 / Fold Change BE285634 Interleukin-1 receptor accessory protein / Fold Change NM_008039 Receptor activity [formyl peptide receptor, related sequence 2] (Fpr-rs2) / Fold Change NM_008677 p40phox; intracellular signaling cascade neutrophil cytosolic factor 4 (Ncf4) / Fold Change NM_008879 Pls2, L-fimbrin, calcium ion binding lymphocyte cytosolic proteing 1 (Lep 1) / Fold Change NM_009883 Nuclear factor induced by IL-6 (NF-IL6) / Fold Change NM_011087 Paired-Ig-like receptor A1 (Piral) / Fold Change NM_011313 Cacy; calcium binding protein A6 (calcyclin)cyclin-dependent protein kinase / Fold Change NM_011315 Saa-3 lipid transported activity acute phase response / Fold Change NM_011355 PU.1, transcription factor complex cell growth and/or maintenance / Fold Change NM_011940 Interferon-activatable protein (Ifi202) / Fold Change NM_011999 DCIR; C-type (calcium dependent, carbohydrate recognition domain) lectin / Fold Change NM_030691 Integral to membrane immunoglobulin superfamily, member 6 (Igsf6) / Fold Change NM_030694 Interferon-induced transmembrane protein-3 / Fold Change U05264 Glycoprotein 49B (Gp49b) / Fold Change U72644 Leukocyte specific transcript 1: blood
Method: To identify how 2AA pre-exposure promotes host defense to better protect against P. aeruginosa infection, we carried out whole genome gene expression studies of mice for several experimental conditions using the mouse full-thickness skin thermal injury infection model, including naïve; BI alone; 2AA treatment alone; 2AA pretreatment plus BI. The mice were injected IP, as we were not yet aware of the improved benefit obtained with IV delivery. Whole blood was collected after 0, 6, 24, 96 and 192 hr post 2AA injection. Also, pretreated BI mice were exposed to 2AA at 1 and 4 days pre-BI, with blood samples collected 24 hr post-BI. The transcriptome profiles were then determined and compared, and genes with statistically significant differences in their expression levels between the samples were further analyzed by pair-wise comparison (see experimental design, section 2.2).
In experiments to determine if T-aminoacetophenone acts as an immunomodulator, eight 6-week old CD-1 male mice were treated intraperitonialy with 500 μl of a 20 mM solution of T-aminoacetophenone in 0.9% NaCl (aq). A control group of mice was administered only 0.9% NaCl. Blood was withdrawn from the mice at time points of 6 hours, 24 hours, 96 hours, and 192 hours, and RNA was extracted from each blood sample.
Mouse GeneChip™ arrays, manufactured by Affymetrix (Santa Clara, Calif.), were used to compare the profile of gene expression in the blood samples of mice. The biotin-labeled cRNA used to hybridize to the GeneChips was prepared from the RNA extracted from the blood samples according to the Affymetrix GeneChip Expression Analysis Technical Manual (Research Genetics, Huntsville, Ala.).
The expression profiles from treated and untreated mice were compared and an additional constraint of a minimum expression ratio of 1 was applied to control false positives to 5%. The gene list was clustered and the genes showing upregulation at any of the time points considered were selected. […] Most of the genes listed in the table function in immune response or host-pathogen interaction. The table includes several cytokines and their receptors, genes involved in immune cell proliferation, and calcium-binding proteins that have a role in downstream signaling.

CC(=O)c1ccccc1N [2AA, 2′-aminoacetophenone]
Fold Change X14607 Lipocalin 2 (24 h after IP 2AA): 0.2 fold
Fold Change AF220015 Rpt-1; regulatory protein, T lymphocyte 1 (96 h after IP 2AA): 0.5 fold
Fold Change AF237910 Membrane-spanning 4-domains, subfamily A (96 h after IP 2AA): 0.0 fold
Fold Change AI323359 Csfmr, colony stimulating factor IR, regulator of myeloid cell proliferation (96 h after IP 2AA): 0.0 fold
Fold Change AI462015 Nuclear factor of kappa light chain gene enhancer in B-cells inhibitor, alpha (96 h after IP 2AA): 0.4 fold
Fold Change AI648846 Solute carrier family 6 (96 h after IP 2AA): 3.7 fold
Fold Change AV026617 FBJ osteosarcoma oncogene (96 h after IP 2AA): 0.0 fold
Fold Change AV229143 Interferon activated gene (202A) (96 h after IP 2AA): 6.8 fold
Fold Change AV318494 Myeloid cell leukemia sequence 1 (96 h after IP 2AA): 0.3 fold
Fold Change BB193024 Interferon-induced transmembrane protein-2 (96 h after IP 2AA): 0.1 fold
Fold Change BB241535 Suppressor of cytokine signaling 3 (96 h after IP 2AA): 0.3 fold
Fold Change BB769628 Colony stimulating factor 2 receptor, beta 1 (96 h after IP 2AA): 3.2 fold
Fold Change BB784999 Triggering receptor expressed on myeloid cells 1 (96 h after IP 2AA): 4.6 fold
Fold Change BB831725 Suppressor of cytokine signaling 3 (96 h after IP 2AA): 2.0 fold
Fold Change BC003839 Myeloid cell leukemia sequence 1 (Mcl1) (96 h after IP 2AA): −0.4 fold
Fold Change BC010291 Interferon-inducible protein (Cd225) (96 h after IP 2AA): −0.3 fold
Fold Change BC011092 Chemokine (C-C) receptor 1 (96 h after IP 2AA): −0.7 fold
Fold Change BC011437 IL-1β (96 h after IP 2AA): 0.2 fold
Fold Change BC012653 Chemokine (C-X3-C) receptor 1 (96 h after IP 2AA): 0.0 fold
Fold Change BC021916 EMAPI, cytokine activity (96 h after IP 2AA): −0.3 fold
Fold Change BC022943 Lymphocyte cytosolic protein 1 (96 h after IP 2AA): −0.4 fold
Fold Change BE285634 Interleukin-1 receptor accessory protein (96 h after IP 2AA): −1.1 fold
Fold Change NM_008039 Receptor activity [formyl peptide receptor, related sequence 2] (Fpr-rs2) (96 h after IP 2AA): 0.2 fold
Fold Change NM_008677 p40phox; intracellular signaling cascade neutrophil cytosolic factor 4 (Ncf4) (96 h after IP 2AA): 0.0 fold
Fold Change NM_008879 Pls2, L-fimbrin, calcium ion binding lymphocyte cytosolic proteing 1 (Lep 1) (96 h after IP 2AA): 0.0 fold
Fold Change NM_009883 Nuclear factor induced by IL-6 (NF-IL6) (96 h after IP 2AA): −0.1 fold
Fold Change NM_011087 Paired-Ig-like receptor A1 (Piral) (96 h after IP 2AA): 0.2 fold
Fold Change NM_011313 Cacy; calcium binding protein A6 (calcyclin)cyclin-dependent protein kinase (96 h after IP 2AA): 0.5 fold
Fold Change NM_011315 Saa-3 lipid transported activity acute phase response (96 h after IP 2AA): 1.5 fold
Fold Change NM_011355 PU.1, transcription factor complex cell growth and/or maintenance (96 h after IP 2AA): 9.2 fold
Fold Change NM_011940 Interferon-activatable protein (Ifi202) (96 h after IP 2AA): 9.4 fold
Fold Change NM_011999 DCIR; C-type (calcium dependent, carbohydrate recognition domain) lectin (96 h after IP 2AA): 5.3 fold
Fold Change NM_030691 Integral to membrane immunoglobulin superfamily, member 6 (Igsf6) (96 h after IP 2AA): 0.0 fold
Fold Change NM_030694 Interferon-induced transmembrane protein-3 (96 h after IP 2AA): 0.2 fold
Fold Change U05264 Glycoprotein 49B (Gp49b) (96 h after IP 2AA): 0.6 fold
Fold Change U72644 Leukocyte specific transcript 1 (96 h after IP 2AA): −0.2 fold
Fold Change X14607 Lipocalin 2 (96 h after IP 2AA): 0.2 fold
Fold Change AF220015 Rpt-1; regulatory protein, T lymphocyte 1 (192 h after IP 2AA): 0.6 fold
Fold Change AF237910 Membrane-spanning 4-domains, subfamily A (192 h after IP 2AA): 0.5 fold
Fold Change AI323359 Csfmr, colony stimulating factor IR, regulator of myeloid cell proliferation (192 h after IP 2AA): 0.3 fold
Fold Change AI462015 Nuclear factor of kappa light chain gene enhancer in B-cells inhibitor, alpha (192 h after IP 2AA): 0.7 fold
Fold Change AI648846 Solute carrier family 6 (192 h after IP 2AA): 7.8 fold
Fold Change AV026617 FBJ osteosarcoma oncogene (192 h after IP 2AA): 10.5 fold
Fold Change AV229143 Interferon activated gene (202A) (192 h after IP 2AA): 6.2 fold
Fold Change AV318494 Myeloid cell leukemia sequence 1 (192 h after IP 2AA): 1.2 fold
Fold Change BB193024 Interferon-induced transmembrane protein-2 (192 h after IP 2AA): 0.3 fold
Fold Change BB241535 Suppressor of cytokine signaling 3 (192 h after IP 2AA): 1.0 fold
Fold Change BB769628 Colony stimulating factor 2 receptor, beta 1 (192 h after IP 2AA): 5.2 fold
Fold Change BB784999 Triggering receptor expressed on myeloid cells 1 (192 h after IP 2AA): 0.0 fold
Fold Change BB831725 Suppressor of cytokine signaling 3 (192 h after IP 2AA): 5.9 fold
Fold Change BC003839 Myeloid cell leukemia sequence 1 (Mcl1) (192 h after IP 2AA): 0.1 fold
Fold Change BC010291 Interferon-inducible protein (Cd225) (192 h after IP 2AA): −0.3 fold
Fold Change BC011092 Chemokine (C-C) receptor 1 (192 h after IP 2AA): −0.3 fold
Fold Change BC011437 IL-1β (192 h after IP 2AA): 0.6 fold
Fold Change BC012653 Chemokine (C-X3-C) receptor 1 (192 h after IP 2AA): 0.0 fold
Fold Change BC021916 EMAPI, cytokine activity (192 h after IP 2AA): −0.2 fold
Fold Change BC022943 Lymphocyte cytosolic protein 1 (192 h after IP 2AA): −0.1 fold
Fold Change BE285634 Interleukin-1 receptor accessory protein (192 h after IP 2AA): −0.2 fold
Fold Change NM_008039 Receptor activity [formyl peptide receptor, related sequence 2] (Fpr-rs2) (192 h after IP 2AA): 0.2 fold
Fold Change NM_008677 p40phox; intracellular signaling cascade neutrophil cytosolic factor 4 (Ncf4) (192 h after IP 2AA): 0.1 fold
Fold Change NM_008879 Pls2, L-fimbrin, calcium ion binding lymphocyte cytosolic proteing 1 (Lep 1) (192 h after IP 2AA): 0.0 fold
Fold Change NM_009883 Nuclear factor induced by IL-6 (NF-IL6) (192 h after IP 2AA): −0.1 fold
Fold Change NM_011087 Paired-Ig-like receptor A1 (Piral) (192 h after IP 2AA): 0.1 fold
Fold Change NM_011313 Cacy; calcium binding protein A6 (calcyclin)cyclin-dependent protein kinase (192 h after IP 2AA): 1.4 fold
Fold Change NM_011315 Saa-3 lipid transported activity acute phase response (192 h after IP 2AA): −0.2 fold
Fold Change NM_011355 PU.1, transcription factor complex cell growth and/or maintenance (192 h after IP 2AA): 6.0 fold
Fold Change NM_011940 Interferon-activatable protein (Ifi202) (192 h after IP 2AA): 9.1 fold
Fold Change NM_011999 DCIR; C-type (calcium dependent, carbohydrate recognition domain) lectin (192 h after IP 2AA): 9.6 fold
Fold Change NM_030691 Integral to membrane immunoglobulin superfamily, member 6 (Igsf6) (192 h after IP 2AA): 5.6 fold
Fold Change NM_030694 Interferon-induced transmembrane protein-3 (192 h after IP 2AA): 0.6 fold
Fold Change U05264 Glycoprotein 49B (Gp49b) (192 h after IP 2AA): 0.9 fold
Fold Change U72644 Leukocyte specific transcript 1 (192 h after IP 2AA): 0.1 fold
Fold Change X14607 Lipocalin 2 (192 h after IP 2AA): 0.2 fold
genes with >2× expression differences at least at one point vs control mice (IP 2AA, blood 0, 6, 24, 96, 192 hr): 835 genes
genes involved in the P38 MAPK pathway induced (post-2AA treatment): 7/8
